{"source": "patent US12338229B2", "about": "“Small molecule stimulators of steroid receptor coactivator-3 and methods of their use as cardioprotective and/or vascular regenerative agents” (BAYLOR COLLEGE OF MEDICINE, priority 2018, dated 2025)", "key": {"[1]": {"tested_on": "GAL4-DBD full length SRC-1, -2 or -3 fusion", "assay": "GAL4 luciferase reporter assay in cardiac fibroblasts", "type": "cell-based, mice", "settings": "6 μM, SRC-3 vs SRC-1 and SRC-2", "experimental": "Reporter assay. Cardiac fibroblasts were plated in six well plates and transfected with a GAL4 responsive luciferase reporter (pG5-luc) and expression vectors for a GAL4 DNA binding domain (GAL4-DBD) full length SRC-1, -2 or -3 fusion construct (pBIND-SRC-1, pBIND-SRC-2 or pBIND-SRC-3) or pBIND control using Lipofectamine 3000 (Invitrogen; Carlsbad, CA). Twenty-four (24) hours post transfection, cells were treated with 6 μM MCB-613 or dimethyl sulfoxide (DMSO) and incubated overnight. Post treatment cells were lysed and total protein was isolated using the Promega luciferase assay system (Promega Life Sciences; Madison, WI). Protein concentration was measured using a Bradford assay (Bio-Rad Laboratories; Hercules, CA). Relative light units were measured and normalized to total protein concentration."}, "[2]": {"tested_on": "mice after myocardial infarction", "assay": "Myocardial infarction model, permanent LAD ligation (echocardiography, histology, immunostaining, PET, EM)", "type": "in vivo, ICR (CD1) mice", "experimental": "Model of heart failure in adult mice. To induce myocardial infarction (MI) in 8- to 10-week-old mice, the left anterior descending (LAD) artery was permanently ligated. Briefly, mice were anesthetized with 2% isoflurane and then intubated. The heart was exposed by performing a thoracotomy through the fourth or fifth intercostal space and an 8-0 nylon suture was tied around the LAD artery. 10 uls of Adenoviral SRC-3 (Ad-SRC-3) or adenoviral GFP (Ad-GFP) at a titre of 9×10^9 pfu/ml was injected into the anterior free wall near left ventricular descending coronary artery. To assess cell cycle entry, the analog 5-ethynyl-2′-deoxyuridine (EdU; 0.2 g/L, Santa Cruz, SC-284628A) was added to the drinking water for the 9 day duration of the experiment. Cell proliferation was measured using Click-iT EdU kit (Invitrogen, C10339). The initial dose of MCB-613 was administered intraperitoneally at 20 mg/kg 2 hours after surgery. Subsequent injections of the same dose were given for 6 additional days, and then repeated doses were given for 3 days at week 9 and week 16. Mice were harvested at indicated time points for analyses.\nEchocardiography. Cardiac function was determined by echocardiography (VisualSonics, Vevo 2100, 40 Mhz-550S probe). After alignment in the transverse B-mode with the papillary muscles, cardiac function was measured on M-mode images.\n(§1) Histological analysis. Whole hearts were fixed with 10% formalin, embedded in paraffin, and sectioned at 7 μm intervals. Each slide had 3 or 10 sections, which started at the apex and ended at the suture ligation site (approximately 30-50 slides). Sections at the papillary level (slides 20-30) were stained with Picrosirius red to identify areas of fibrosis. Infarct size was determined using a length-based approach.\nImmunostaining analysis. Immunohistochemistry and immunofluorescent staining experiments were performed on FFPE (formalin-fixed and paraffin-embedded sections). TUNEL staining to detect apoptotic cells was done using the DeadEnd™ Fluorometric TUNEL System manufacturer's protocol (Promega, GS3250).\nModel of heart failure in adult mice. To induce MI in eight- to ten-week-old mice, the left anterior descending (LAD) artery was permanently ligated. Briefly, mice were anesthetized with 2% isoflurane and then intubated. The heart was exposed by performing a thoracotomy through the fourth or fifth intercostal space and an 8-0 nylon suture was tied around the LAD. The initial dose of MCB-613 was administered intraperitoneally at 20 mg/kg, two hours after surgery. Subsequent injection at the same time of the day and same dose were given for six additional days, and then repeated doses were given for three days at week nine and week 16. Mice were harvested at the indicated time points for analyses.\nEchocardiography. Cardiac function was determined by echocardiography (VisualSonics, Vevo 2100, 40 Mhz-550S probe). After alignment in the transverse B-mode with the papillary muscles, cardiac function was measured on M-mode images. Animal numbers for cardiac function in FIG. 11A are Day 0 control (17); MCB-613 (15), Day 1 control (10); MCB-613 (12), Day 14 […], Day 56 control (12); MCB-613 (15), Day 70 control (8); MCB-613 (10), Day 80 control (8); MCB-613 (11), Day 133 control (3); and MCB-613 (3).\nas §1, with “three (3) to ten (10)” for “3 or 10”, “approach. TUNEL staining to detect apoptotic cells was performed using the DeadEnd™ Fluorometric TUNEL System (Promega, GS3250).” for “approach.”\nElectron Microscopy. […]"}, "[3]": {"tested_on": "cardiac immune cells", "assay": "Flow cytometry cardiac immune phenotyping post-MI", "type": "in vivo, mice", "settings": "24 hours post-MI, vs control", "experimental": "Flow Cytometry and Cardiac Immune Phenotyping. Hearts and spleens isolated from control and MCB-613 treated mice 24 hours post-MI or post-sham surgery were digested in digestion buffer: 500 μL of DNAse I (10 mg/ml), 500 μl Collagenase II (50 mg/ml) into 4 ml (enough for approx. 12 spleens @ 1x) RPMI 1640. Cells were placed on a GentleMacs dissociator and run on “IMPC_step2” twice and incubated at 25° C. for 15 minutes. The “IMPC_step2” program was repeated and the samples were incubated at 25° C. an additional 15 minutes followed by another round of the “IMPC_step2” program. Then, 400 μL of 4° C. Stopping Buffer (1x PBS, 0.1M EDTA) was added to each sample and centrifuged at ˜100 g for one second to collect liquid at the bottom of tube. Samples were filtered through mesh filter caps into 50 mL conical tubes. The tubes were then washed with 1 mL FACs buffer which was also then passed through the filter. Heart preps were more viscous and were washed with 20 mL cold filtered saline. Samples were centrifuged at 500 g for 6 minutes. Supernatant was discarded and the pellet suspended in 1 mL 4° C. FACS buffer. Following red blood cell (RBC) lysis and blocking, single cell suspensions were stained with an immune cell panel and quantified using an LSR II flow cytometer. Then, 500,000 live events were counted for spleen controls and the entire tube of heart cells was recorded and analyzed."}, "[4]": {"assay": "Pharmacokinetics in CD-1 mice (plasma, HPLC-MS/MS)", "procedure": "Each of the three compounds was dissolved in DMSO (20 mg/mL), mixed with 30% hydroxypropyl-β-cyclodextrin at a 1:9 ratio, and administered to the CD-1 mice intraperitoneally (ip) or orally (po) through a gavage. After compound administration, blood samples (3 mice per compound) were collected at nine time points, i.e., at 5 minutes, 0.25 hours, 0.5 hours, 1 hour, 2 hours, 4 hours, 8 hours, 12 hours, and 24 hours, through the tail vein. Plasma was isolated from these blood samples and the compound plasma concentrations were determined by HPLC-MS/MS. Pharmacokinetic parameters were calculated using the program PKSolver, an add-in program for use in analyzing pharmacokinetic and pharmacodynamics data analysis, as described in Zhang et al., Computer Methods and Programs in Biomedicine, 99: 306-314 (2010)."}}, "note": "Where “and” joins values, the source holds several entries; their conditions need not be identical. Equal entries are not always repeated.", "data": [{"compound": "CCC1C/C(=C\\c2cccnc2)C(=O)/C(=C/c2cccnc2)C1", "note": "(stereo not drawn) [MCB-613]", "values": [{"measurement": "SRC activation (luciferase, RLU)", "setting": "[1]", "value": "induced in response to MCB-613 to a greater extent than for SRC-1 and SRC-2"}, {"measurement": "18F-FDG uptake in infarct zone (cardiac PET)", "setting": "[2]; 2 weeks post-MI", "value": "Improved ^18F-FDG uptake in the infarct zone"}, {"measurement": "infarct size vs saline control", "setting": "[2]; 10 weeks post-MI, picrosirius red", "value": "decrease in infarct size"}, {"measurement": "heart weight (vs tibia length), cardiomegaly", "setting": "[2]; 12 weeks post-MI", "value": "attenuated the MI-induced cardiomegaly compensatory response"}, {"measurement": "cardiomyocyte size and fibrosis in infarct border zone", "setting": "[2]; 12 weeks post-MI, Picrosirius red", "value": "cardiomyocytes were smaller and associated with less fibrosis in the infarct border zone"}, {"measurement": "infarct size (Picrosirius red, % length)", "setting": "[2]; 12 weeks post-MI, individual hearts, control 31% and 44%", "value": "3% and 14% and 20% and 22%"}, {"measurement": "apoptosis (TUNEL)", "setting": "[2]; 24 hours post-MI", "value": "prevents apoptosis"}, {"measurement": "average ejection fraction", "setting": "[2]; 24 hours post-MI, 20 mg/kg ip two hours post-MI, control 30%", "value": 43, "unit": "%"}, {"measurement": "LYZ1 granule expression in myocardium", "setting": "[2]; 24 hours post-MI, vs control", "value": "LYZ1 granule expression was significantly increased"}, {"measurement": "myofibrillar and mitochondrial structure (electron micrographs)", "setting": "[2]; 72 hours post-MI", "value": "prevent disorganization of myofibrillar structure and abnormal mitochondrial cristal architecture"}, {"measurement": "ejection fraction maintained", "setting": "[2]; from 24 hours until 19 weeks post-MI, 20 mg/kg ip 2 h post-MI and six additional days", "value": "above 40%"}, {"measurement": "angiogenesis in infarct border zone (CD31 immunostain)", "setting": "[2]; three days post-MI, treated two hours post-MI", "value": "Increased angiogenesis was observed in the infarct border zone"}, {"measurement": "composition of cardiac immune cells (FACS)", "setting": "[3]", "value": "significant decrease in B cells, a trend for decreased monocytes and no change in the fraction of granulocytes"}, {"measurement": "AUC(0-inf)", "setting": "[4]; intraperitoneal", "value": 129.6, "unit": "ng·h/mL"}, {"measurement": "AUC(0-t)", "setting": "[4]; intraperitoneal", "value": 122.2, "unit": "ng·h/mL"}, {"measurement": "Cl", "setting": "[4]; intraperitoneal", "value": "6.4 (mg)/(ng/mL)/h"}, {"measurement": "Cmax", "setting": "[4]; intraperitoneal", "value": 49.2, "unit": "ng/mL"}, {"measurement": "Terminal phase t1/2", "setting": "[4]; intraperitoneal", "value": 390, "unit": "min"}, {"measurement": "Tmax", "setting": "[4]; intraperitoneal", "value": 4.8, "unit": "min"}, {"measurement": "t1/2", "setting": "[4]; intraperitoneal", "value": 51.6, "unit": "min"}, {"measurement": "AUC(0-inf)", "setting": "[4]; oral (gavage)", "value": 24.3, "unit": "ng·h/mL"}, {"measurement": "AUC(0-t)", "setting": "[4]; oral (gavage)", "value": 15.7, "unit": "ng·h/mL"}, {"measurement": "Cl", "setting": "[4]; oral (gavage)", "value": "34 (mg)/(ng/mL)/h"}, {"measurement": "Cmax", "setting": "[4]; oral (gavage)", "value": 5.6, "unit": "ng/mL"}, {"measurement": "Terminal phase t1/2", "setting": "[4]; oral (gavage)", "value": 966, "unit": "min"}, {"measurement": "Tmax", "setting": "[4]; oral (gavage)", "value": 15, "unit": "min"}, {"measurement": "t1/2", "setting": "[4]; oral (gavage)", "value": 56.4, "unit": "min"}]}]}
